For data set [1] the following is noted: in vivo; cited from earlier work.
For data set [2], the system named is atherosclerotic plaques in the iliac and aorta. Nature of the data set: Ex vivo fluorescence reflectance imaging (FRI) of resected atherosclerotic aortoiliac vessels. Also noted: species or system rabbit. To be noted: excitation/emission 762 nm/800 nm. On the procedure:
Resected atherosclerotic aortoiliac vessels underwent fluorescence reflectance imaging (FRI) with an excitation/emission filter 762 nm/800 nm and a 5 second exposure time. Light images were also obtained with an exposure time of 100 msec. Region-of-interest (ROI) analysis was performed using visual identification of plaques and normal background on FRI images. The plaque target-to-background ratio was defined as: TBR=(plaque ROI signal)/(adjacent vessel background ROI signal).

For data set [3] the following is noted: cited from earlier work.
For data set [4], the system named is iliac atherosclerotic plaques. Kind of data set: Catheter-based NIRF sensing of ICG enhancement of atherosclerotic plaques. The data set is classed as in vivo, rabbit. As to conditions: immediately after injection; 6 mg ICG in 1.2 mL. As to the method: White rabbits (weight 3-3.5 kg) underwent balloon-denudation of iliac arteries and hypercholsterolemic diet in order to develop inflamed atheromata. The rabbits were placed on a high-cholesterol diet (1% cholesterol and 5% peanut oil) for 1 week prior to balloon injury. After an overnight fast, anesthesia was induced with IM ketamine (35 mg/kg) and xylazine (5 mg/kg). Anesthesia was continued using inhaled isoflurane (1-5% v/v) and supplemental 02. Next a 3F Fogarty arterial embolectomy catheter was advanced into the common iliac vessels of the rabbits. The balloon was inflated to tension (0.6-1.0 ml). A total of 3 pullbacks were performed in the left and right iliac artery, as well as the infrarenal aorta. Following injury, the introducer was removed and the left carotid artery was ligated. Rabbits continued on the high-cholesterol diet for 4-8 weeks. […]
Anesthesia was initiated as above, and a 5F introducer was placed into the right carotid artery and then delivered to the descending thoracic aorta under fluoroscopic guidance. […] The maximum voltage was recorded from each digitized pullback. The in vivo plaque target-to-background ratio (TBR) was thus calculated as TBR=(maximum voltage detected from all pullbacks)/(background voltage). […]

The conditions of data set [5]: cited from earlier work. This is another data set of the same source.
The test system of the next data set is plaque neovessels. Nature of the data set: Correlative fluorescence microscopy of atheromata sections. Also noted: species or system rabbit. As to conditions: x200, FIG. 4(f).

Results on 1 compound are retold here after patent publication US20100092389A1 (The General Hospital Corporation, priority 2008, published 2010).

Protocol for plaque neovessels: After imaging, vessels were immersed in 4% paraformaldehyde for 24 hours. Vascular rings were then frozen in an optical cutting temperature compound for histopathological analysis. Serial 5 micrometer cryosections of rabbit atheromata were cut. […] Tissue sections were viewed using a microscope and images were captured using a digital camera.

For the compound `CC1(C)C(/C=C/C=C/C=C/C=C2\N(CCCCS(=O)(=O)O)c3ccc4ccccc4c3C2(C)C)=[N+](CCCCS(=O)(=O)[O-])c2ccc3ccccc3c21` [ICG, Indocyanine green], the “severe side effect incidence” value in data set [1] was “less than 0.1%”. Besides, the “ex vivo plaque signal-to-background” value in data set [2] was “very high plaque signal-to-background”. Further, the solubility in saline result in data set [3] was “not readily soluble in saline”. Also, the “NIRF signal, voltage recordings from the intravascular space of the iliac arteries” value in data set [4] is on record as over 10 V. In data set [5] (bound to proteins), the “time usable as intravascular angiographic agent” value is on record as “about 40 minutes”. In data set [5] (in vivo), the route of excretion entry is reported as “rapidly excreted unmetabolized into the bile” and the “time to elimination from the bloodstream” value was “about 2 hours”. In addition, the “ICG signal in plaque neovessel by fluorescence microscopy” value in the data set on plaque neovessels is on record as “strong ICG signal in a plaque neovessel”.
